Laboratory results taken from patent US10202377B2, “3-(1H-benzo[D]imidazol-2-yl)-1H-pyrazolo[3,4-C]pyridine and therapeutic uses thereof” (Samumed, LLC, priority 2014, dated 2019).

Experiments:
[1] = tested on: primary human fibroblasts derived from IPF patients (LL29 cells); assay: Inhibition of fibrosis (αSMA staining) in TGF-β1-treated primary human fibroblasts from IPF patients; type: cell-based; conditions: Fibroblast, 96 h, TGF-β1 20 ng/mL, 4 days
Experimental: The above synthesized compounds were screened using primary human fibroblasts (derived from IPF patients) treated with TGF-β1 to determine their ability to inhibit the fibrotic process.
Compound Screening: Each compound was dissolved in DMSO as a 10 mM stock and used to prepare compound source plates. […] LL29 cells were plated at 1,500 cells/well in 80 μl/well F12 medium supplemented with 1% Fetal Bovine Serum. One hour after addition of the cells, TGF-β1 (Peprotech; 20 ng/mL) was added to the plates to induce fibrosis (ref. 1 and 2 above). Wells treated with TGF-β1 and containing DMSO were used as controls. Cells were incubated at 37° C. and 5% CO2 for 4 days. Following incubation for 4 days, SYTOX green nucleic acid stain (Life Technologies [Thermo Fisher Scientific]) was added to the wells at a final concentration of 1 uM and incubated at room temperature for 30 min. Cells were then fixed using 4% formaldehyde (Electron Microscopy Sciences), washed 3 times with PBS followed by blocking and permeabilization using 3% Bovine Serum Albumin (BSA; Sigma) and 0.3% Triton X-100 (Sigma) in PBS. Cells were then stained with antibody specific to α-smooth muscle actin (aSMA; Abcam) (ref. 1 and 2 above) in 3% Bovine Serum Albumin (BSA; Sigma) and 0.3% Triton X-100 (Sigma) in PBS, and incubated overnight at 4° C. […] Dead or apoptotic cells were excluded from analysis based on positive SYTOX green staining. % of total cells positive for αSMA were counted in each well and normalized to the average of 11 wells treated with TGF-β1 on the same plate using Dotmatics' Studies Software. […] The EC50 values are reported.

[2] = tested on: Wnt activity (Sp5-Luc reporter, SW480 colon carcinoma cells); assay: Sp5-Luc Wnt reporter gene screening assay in SW480 colon carcinoma cells; conditions: Homo sapiens
Experimental: The screening assay for Wnt activity is described as follows.
SW480 colon carcinoma cells were transduced with a lentiviral vector expressing luciferase with a human Sp5 promoter consisting of a sequence of eight TCF/LEF binding sites. SW480 cells stably expressing the Sp5-Luc reporter gene and a hygromycin resistance gene were selected by treatment with 150 μg/ml of hygromycin for 7 days. These stably transduced SW480 cells were expanded in cell culture and used for all further screening activities. For Sp5-Luc reporter gene assays, the cells were plated at 10,000 cells/well in 96-well plates with growth medium containing 10% fetal calf serum and incubated overnight at 37° C. and 5% CO2. […] Compound transfer from serially diluted source plates to assay plates containing the cells was accomplished using a pintool (Multimek 96, Beckman equipped with V&P Scientific FP1S50H pins) based liquid handling protocol. This protocol used a slotted pin to transfer 50 nl of compound from a source plate well to an assay plate well containing 50 μl of cells in growth medium. […] Control wells received 50 nl of DMSO treatment for normalization and calculating IC50 values. The treated cells were incubated at 37° C. and 5% CO2 for an additional forty-two hours. Following incubation, the growth medium was removed and 50 μl of BrightGlo luminescence reagent (Promega) was added to each well of the 96-well assay plates. The plates were placed on an orbital shaker for 5 min and then luminescence was quantified on the Victor3 (Perkin Elmer) plate reader.

SMILES | EC50 [1] [nM] | IC50 [2] [nM]
CCC(=O)Nc1cncc(-c2cc3c(-c4nc5c(-c6cccc(F)c6)cccc5[nH]4)n[nH]c3cn2)c1 [Compound 1, N-(5-(3-(4-(3-Fluorophenyl)-1H-benzo[d]imidazol-2-yl)-1H-pyrazolo[3,4-c]pyridin-5-yl)pyridin-3-yl)propionamide] | 9 | 43.9
CN(C)c1cncc(-c2cc3c(-c4nc5c(-c6cccc(F)c6)cccc5[nH]4)n[nH]c3cn2)c1 [Compound 7, 5-(3-(4-(3-Fluorophenyl)-1H-benzo[d]imidazol-2-yl)-1H-pyrazolo[3,4-c]pyridin-5-yl)-N,N-dimethylpyridin-3-amine] | 17 | 42.4
O=C(Nc1cncc(-c2cc3c(-c4nc5c(-c6cccc(F)c6)cccc5[nH]4)n[nH]c3cn2)c1)C1CCC1 [Compound 20] | 10 | 74.4
Fc1cccc(-c2cccc3[nH]c(-c4n[nH]c5cnc(-c6cncc(CN7CCC(F)(F)C7)c6)cc45)nc23)c1 [Compound 25, 5-(5-((3,3-Difluoropyrrolidin-1-yl)methyl)pyridin-3-yl)-3-(4-(3-fluorophenyl)-1H-benzo[d]imidazol-2-yl)-1H-pyrazolo[3,4-c]pyridine] | 48 | 87.3
CC(C)CC(=O)Nc1cncc(-c2cc3c(-c4nc5c(-c6ccc(F)cc6)cccc5[nH]4)n[nH]c3cn2)c1 [Compound 28, N-(5-(3-(4-(4-Fluorophenyl)-1H-benzo[d]imidazol-2-yl)-1H-pyrazolo[3,4-c]pyridin-5-yl)pyridin-3-yl)-3-methylbutanamide] | 741 | 90.8
Fc1ccc(-c2cccc3[nH]c(-c4n[nH]c5cnc(-c6cncc(CN7CCCC7)c6)cc45)nc23)cc1 [Compound 40, 3-(4-(4-Fluorophenyl)-1H-benzo[d]imidazol-2-yl)-5-(5-(pyrrolidin-1-ylmethyl)pyridin-3-yl)-1H-pyrazolo[3,4-c]pyridine] | 78 | 287
O=C(Nc1cncc(-c2cc3c(-c4nc5c(-c6ccc(F)cc6)cccc5[nH]4)n[nH]c3cn2)c1)C1CCC1 [Compound 46, N-(5-(3-(4-(4-Fluorophenyl)-1H-benzo[d]imidazol-2-yl)-1H-pyrazolo[3,4-c]pyridin-5-yl)pyridin-3-yl)cyclobutanecarboxamide] | 94 | 48.9
Fc1ccc(-c2cccc3[nH]c(-c4n[nH]c5cnc(-c6cncnc6)cc45)nc23)cc1 [Compound 52, 3-(4-(4-Fluorophenyl)-1H-benzo[d]imidazol-2-yl)-5-(pyrimidin-5-yl)-1H-pyrazolo[3,4-c]pyridine] | 147 | 122
CC(C)C(=O)Nc1cncc(-c2cc3c(-c4nc5c(-c6ccccc6F)cccc5[nH]4)n[nH]c3cn2)c1 [Compound 61, N-(5-(3-(4-(2-Fluorophenyl)-1H-benzo[d]imidazol-2-yl)-1H-pyrazolo[3,4-c]pyridin-5-yl)pyridin-3-yl)isobutyramide] | 81 | 81.2
CC(C)(C)CC(=O)Nc1cncc(-c2cc3c(-c4nc5c(-c6ccccc6F)cccc5[nH]4)n[nH]c3cn2)c1 [Compound 68, N-(5-(3-(4-(2-Fluorophenyl)-1H-benzo[d]imidazol-2-yl)-1H-pyrazolo[3,4-c]pyridin-5-yl)pyridin-3-yl)-3,3-dimethylbutanamide] | 1670 | 164
CN1CCN(c2cccc3[nH]c(-c4n[nH]c5cnc(-c6cncc(CN7CCCCC7)c6)cc45)nc23)CC1 [Compound 223, 3-(4-(4-Methylpiperazin-1-yl)-1H-benzo[d]imidazol-2-yl)-5-(5-(piperidin-1-ylmethyl)pyridin-3-yl)-1H-pyrazolo[3,4-c]pyridine] | 2610 | –
CN(C)CC(=O)Nc1cncc(-c2cc3c(-c4nc5c(-c6cccc(F)c6)cccc5[nH]4)n[nH]c3cn2)c1 [Compound 1437, 2-(Dimethylamino)-N-(5-(3-(4-(3-fluorophenyl)-1H-benzo[d]imidazol-2-yl)-1H-pyrazolo[3,4-c]pyridin-5-yl)pyridin-3-yl)acetamide] | – | 155
